According to PubChem BioAssay (NCI):
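A five-concentration, 48-hour dose response in 96-well plates underlies each endpoint, interpolated linearly between surrounding concentrations. Here, GI50 denotes the concentration required for 50% inhibition of growth. TGI denotes the concentration required for complete inhibition of growth.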

Columns and labels:
Test in all cases: DTP human tumour cell line panel, 48 h
ACHN renal = system: ACHN renal
HCT-15 colon = system: HCT-15 colon
HT29 colon = system: HT29 colon
IGROV1 ovarian = system: IGROV1 ovarian
MALME-3M melanoma = system: MALME-3M melanoma
NCI-H522 lung = system: NCI-H522 lung
SF-268 CNS = system: SF-268 CNS
SK-MEL-28 melanoma = system: SK-MEL-28 melanoma
U251 CNS = system: U251 CNS
K-562 leukemia = system: K-562 leukemia

SMILES	TGI (ACHN renal) [µM]	TGI (HCT-15 colon) [µM]	TGI (HT29 colon) [µM]	TGI (IGROV1 ovarian) [µM]	TGI (MALME-3M melanoma) [µM]	TGI (NCI-H522 lung) [µM]	TGI (SF-268 CNS) [µM]	TGI (SK-MEL-28 melanoma) [µM]	TGI (U251 CNS) [µM]	TGI (K-562 leukemia) [µM]	GI50 (ACHN renal) [µM]	GI50 (HCT-15 colon) [µM]	GI50 (HT29 colon) [µM]	GI50 (IGROV1 ovarian) [µM]	GI50 (K-562 leukemia) [µM]	GI50 (SF-268 CNS) [µM]
O=[N+]([O-])c1ccc2nc(-c3ccccn3)c(-c3ccccn3)nc2c1	> 100	> 100	> 100	> 100	> 100	> 100	> 100	> 100	> 100	–	–	–	–	–	–	–
c1ccc(CCN2CCc3[nH]c4ccccc4c3C2)cc1	96.7	46.2	28.5	67.8	32.8	–	> 100	41.8	31.9	45.5	–	–	–	–	–	–
COc1cc2nc(-c3ccc4ccccc4c3)[nH]c(=O)c2cc1OC	> 100	> 100	> 100	> 100	> 100	> 100	> 100	–	–	> 100	–	–	–	–	–	–
O=[N+]([O-])c1ccc(S[C@@H]2[C@H]3c4c(-c5ccccc5)[nH]c(-c5ccccc5)c4[C@@H]2C[C@H]3Cl)cc1	> 100	6.84	> 100	> 100	78.9	14.1	25.7	> 100	> 100	–	–	–	–	–	–	–
CC1(C)OCC(C(O)C2OC(C)(C)OC2C=O)O1 (stereo not drawn)	> 100	> 100	> 100	> 100	> 100	–	> 100	> 100	> 100	> 100	–	–	–	–	–	–
Clc1ccc(N2N=C(c3cccc(Nc4ccncc4)c3)CC2c2ccc3c(c2)OCO3)cc1 (stereo not drawn)	3.13	3.41	6.55	3.67	–	–	3.32	–	–	5.39	1.65	1.76	2.44	1.73	2.09	1.63
COc1ccc2c(c1)C(N)=C(c1ccccc1)C2=O	> 100	> 100	> 100	> 100	> 100	> 100	> 100	> 100	> 100	–	–	–	–	–	–	–
COc1cc2c(cc1OCCCC(=O)Nc1cc(C(=O)Nc3cc(C(=O)Nc4cc(C(=O)NCCCN(C)C)n(C)n4)n(C)n3)n(C)n1)N=CC1CCCN1C2=O (stereo not drawn)	38.4	> 100	51.3	7.98	25.5	–	89.3	30.7	> 100	> 100	–	–	–	–	–	–
N=c1oc2ccc3ccccc3c2cc1C(N)=O	> 100	> 100	> 100	70.8	–	–	> 100	> 100	> 100	–	–	–	–	–	–	–
Cc1cccc2c1[nH]c1[nH]c(=O)[nH]c(=O)c12	> 100	> 100	> 100	> 100	> 100	> 100	> 100	–	–	> 100	–	–	–	–	–	–
O=C1NC(=O)/C(=C/c2ccc(S(=O)(=O)N/N=C/c3ccc(Cl)cc3)cc2)N1	> 100	> 100	> 100	> 100	> 100	–	> 100	> 100	> 100	> 100	–	–	–	–	–	–
Cc1cc(C)c(P2C(=C(O[Si](C(C)C)(C(C)C)C(C)C)C(C)(C)C)C2(c2ccccc2)c2ccccc2)c(C)c1 (stereo not drawn)	> 100	> 100	> 100	> 100	–	> 100	> 100	> 100	> 100	> 100	–	–	–	–	–	–
O=CC(O)C(O)C(O)C(O)C(=O)NCCCCCCCCCCCCNC(=O)C(O)C(O)C(O)C(O)C=O (stereo not drawn)	> 100	> 100	> 100	> 100	> 100	> 100	> 100	> 100	> 100	–	–	–	–	–	–	–
CC(=O)/C(=C/n1c(=S)[nH]c2ccccc21)C(=O)Nc1ccccc1C	> 100	> 100	> 100	> 100	–	–	> 100	> 100	> 100	–	–	–	–	–	–	–
CC[N+]1(C)CCC(O)(/C=C/c2ccc(OC)cc2)C(C(=O)/C=C/c2ccc(OC)cc2)C1 (stereo not drawn)	23.2	> 55.4	> 74.5	47.1	34.6	–	> 59.7	31.7	33.9	4.5	–	–	–	–	–	–
Nc1ncnc2c1ncn2C1CCC(COS(N)(=O)=O)C1 (stereo not drawn)	> 100	> 100	> 100	> 100	> 100	–	> 100	> 100	> 100	> 100	–	–	–	–	–	–
COC(=O)C1CCC(=O)N1C(=O)Cc1ccc(OC)cc1 (stereo not drawn)	> 100	> 100	> 100	> 100	–	> 100	> 100	> 100	> 100	–	–	–	–	–	–	–
Cc1nc2c3c(ncn2n1)Oc1c(c(-c2ccccc2)nn1-c1ccccc1)C3c1ccc(Cl)cc1 (stereo not drawn)	> 100	> 100	> 100	> 100	> 100	–	> 100	> 100	> 100	> 100	–	–	–	–	–	–
